Test results taken from patent US8546377B2 (AbbVie Inc., priority 2009, dated 2013).
pEC50: −log10 of the molar value. Like-named read-outs stand apart in the source and are kept apart here.

How the values were obtained:
[1] = target: T1, 5HT2B receptors (Homo sapiens, UniProt P41595); experiment: Human 5-HT2B functional assay in CHO-K1 cells (calcium flux, FLIPR); type: cell-based; settings: for EC50: CHO-K1 cells over-expressing 5HT2B, calcium flux, read-out: EC50 (μM), 5-HT2B Agonist Activity
T1 construct: expressed in transfected cells; host or cells: CHO-K1 cells
Procedure: (§1) (iii) Human 5-HT2C and 5-HT2B Functional Assay in CHO-K1 Cells
(§2) CHO-K1 cells over-expressing 5HT2C or 5HT2B receptors were grown in 1272 cm^2 flasks to 70-80% confluency in UltraCHO media supplemented with 1% dialyzed fetal bovine serum (FBS), 250 μg/mL zeocin, 100 U/mL penicillin/streptomycin, and 400 μg/mL geneticin. The cells were dissociated from the flasks using 0.05% trypsin, resuspended in freezing media and stored in liquid nitrogen until use. Calcium flux experiments were done using frozen cells. The cells were diluted in media containing 1% dialyzed FBS and 100 U/mL penicillin/streptomycin and plated into 384-well poly-D-Lysine coated plates (15,000 cells/well). Then the plates were incubated overnight in a cell incubator at 37° C., 5% CO2. On the next day, the growth media was replaced with media without FBS and further incubated overnight. On day three, the changes in intracellular Ca^2+ were determined using calcium sensitive fluorescent dye, Ca4 (MDS Analytical Technologies, Sunnyvale, Calif.) by loading 15 μL of diluted dye with 2.5 mM probenecid into the cells containing media and incubated at room temperature for 60 minutes in dark.
(§3) Fluorescence measurements were read at 25° C. at an excitation wavelength of 480 nm and an emission wavelength of 530 nm in FLIPR (MDS). Baseline fluorescence was measured for the first 10 seconds and then 15 μL of 4× concentrations of serotonin/test compounds was added to the cell plate. The fluorescence intensity was captured every second for the first 1 minute followed by every 5 seconds for an additional 2 minutes. The increase in fluorescent response was determined and was normalized to the response of serotonin. The concentration response of compounds was done from a starting concentration of 10 μM, 1:10 dilution across 6 wells with a final dimethyl sulfoxide concentration of 0.2% and was fitted using a 4-parameter logistic equation. The concentration at which a compound exerts half its maximal effect was named as ‘effective concentration 50’ or ‘EC50’.
(§4) Emax is the maximum functional response or efficacy expressed as a percentage relative to the effect of serotonin.

[2] = target: T2, 5HT2C receptors (Homo sapiens, UniProt P28335); experiment: Human 5-HT2C functional assay in CHO-K1 cells (calcium flux, FLIPR); type: cell-based; parameters: expressed in transfected cells; host or cells: CHO-K1 cells; settings: for Emax: percentage relative to the effect of serotonin; for EC50: CHO-K1 cells over-expressing 5HT2C, calcium flux, read-out: EC50 (μM), 5-HT2c Agonist Activity
T2 sequence (P28335 33-458): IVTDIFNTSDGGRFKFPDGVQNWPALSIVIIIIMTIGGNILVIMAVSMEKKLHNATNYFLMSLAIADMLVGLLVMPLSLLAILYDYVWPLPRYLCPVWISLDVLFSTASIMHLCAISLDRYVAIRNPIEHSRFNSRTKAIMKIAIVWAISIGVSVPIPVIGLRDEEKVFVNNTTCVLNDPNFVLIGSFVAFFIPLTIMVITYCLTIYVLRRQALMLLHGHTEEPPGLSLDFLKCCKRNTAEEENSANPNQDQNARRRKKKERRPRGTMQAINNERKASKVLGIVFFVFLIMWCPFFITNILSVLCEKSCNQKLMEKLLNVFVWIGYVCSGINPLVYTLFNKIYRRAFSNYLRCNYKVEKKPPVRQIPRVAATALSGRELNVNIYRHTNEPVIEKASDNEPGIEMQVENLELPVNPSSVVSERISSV
Procedure: as §1, §2, §3, §4

[3] = CHO-K1, read-out: Emax (%), 5-HT2c Agonist Activity, CHO-K1 cells
[4] = CHO-K1, read-out: Emax (%), 5-HT2B Agonist Activity
[5] = CHO-K1 cells, read-out: Emax (%), 5-HT2c Agonist Activity
[6] = CHO-K1 cells, percentage relative to the effect of serotonin, read-out: Emax (%), 5-HT2B Agonist Activity

T1 sequence (P41595 whole entry): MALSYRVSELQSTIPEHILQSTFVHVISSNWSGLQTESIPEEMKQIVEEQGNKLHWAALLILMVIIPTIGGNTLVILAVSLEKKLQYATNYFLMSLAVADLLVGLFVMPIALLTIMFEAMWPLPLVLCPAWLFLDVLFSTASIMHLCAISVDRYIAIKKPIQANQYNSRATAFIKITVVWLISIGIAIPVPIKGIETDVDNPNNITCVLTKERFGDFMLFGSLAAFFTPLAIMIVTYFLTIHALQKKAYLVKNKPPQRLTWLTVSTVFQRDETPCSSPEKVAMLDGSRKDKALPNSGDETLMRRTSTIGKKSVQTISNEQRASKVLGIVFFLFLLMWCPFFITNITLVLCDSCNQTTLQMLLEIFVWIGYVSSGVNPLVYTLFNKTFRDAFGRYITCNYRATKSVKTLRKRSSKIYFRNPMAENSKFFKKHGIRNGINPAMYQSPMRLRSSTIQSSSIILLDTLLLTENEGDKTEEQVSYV

SMILES	EC50 [1] [µM]	EC50 [2] [µM]	Emax [2, 5] [%]	Emax [1, 6] [%]	Emax [2, 3] [%]	pEC50 [1]	Emax [1, 4] [%]	pEC50 [2]
O=C1NC[C@@H]2CNCC[C@@H]2c2ccccc21 (relative stereo) [Example 180, cis-1,2,3,4,4a,5,6,11b-octahydro-7H-pyrido[3,4-d][2]benzazepin-7-one]	> 10	0.2			> 120			
C[C@@H]1C[C@H]2CNCCN2c2ccccc2O1 (single isomer, unassigned) [Example 252]					105	7.22	40	8.22
C[C@H]1C[C@H]2CNCCN2c2ccccc2O1 (single isomer, unassigned) [Example 253]					100	< 5.00		7.05
Cc1ccc2c(c1)NC(=O)CC1CNCCN21 (stereo not drawn) [Example 49, 9-methyl-1,2,3,4,4a,5-hexahydropyrazino[1,2-a][1,5]benzodiazepin-6(7H)-one]					100	< 5.00		7.22
CCOC(=O)c1ccc2c(c1)N1CCNCC1CC(=O)N2 (stereo not drawn) [Example 50, ethyl 6-oxo-1,2,3,4,4a,5,6,7-octahydropyrazino[1,2-a][1,5]-benzodiazepine-10-carboxylate]	> 10	0.2	80					
O=C1CC2CNCCN2c2ccc(Cl)cc2N1 (stereo not drawn) [Example 51, 9-chloro-1,2,3,4,4a,5-hexahydropyrazino[1,2-a][1,5]benzodiazepin-6(7H)-one]					90	< 5.00		7.15
Cc1cccc2c1N1CCNCC1CC(=O)N2 (stereo not drawn) [Example 53, 11-methyl-1,2,3,4,4a,5-hexahydropyrazino[1,2-a][1,5]benzodiazepin-6(7H)-one]					> 120	5.52	60	8.22
Brc1ccc2c(c1)NCC[C@H]1CNCCN21 [Example 54, (4aS)-9-bromo-1,2,3,4,4a,5,6,7-octahydropyrazino[1,2-a][1,5]benzodiazepine]					110	< 5.00		7.15
O=C1C[C@H]2CNCCN2c2ccc(Cl)cc2N1 [Example 55, (4aS)-9-chloro-1,2,3,4,4a,5-hexahydropyrazino[1,2-a][1,5]benzodiazepin-6(7H)-one]					> 120	< 5.00		7.70
O=C1CC2CNCCN2c2cc(-c3cccc(-c4ccccc4)c3)ccc2N1 (stereo not drawn) [Example 59, 10-(biphenyl-3-yl)-1,2,3,4,4a,5-hexahydropyrazino[1,2-a][1,5]benzodiazepin-6(7H)-one]	> 10	0.04	> 120					
O=C1CC2CNCCN2c2cc(-c3ccccc3-c3ccccc3)ccc2N1 (stereo not drawn) [Example 64, 10-(biphenyl-2-yl)-1,2,3,4,4a,5-hexahydropyrazino[1,2-a][1,5]benzodiazepin-6(7H)-one]	1	0.03	110	15				
O=C1CC2CNCCN2c2cc(-c3csc4ccccc34)ccc2N1 (stereo not drawn) [Example 66, 10-(1-benzothiophen-3-yl)-1,2,3,4,4a,5-hexahydropyrazino[1,2-a][1,5]benzodiazepin-6(7H)-one]	> 10	0.09	100					
O=C1CC2CNCCN2c2cc(-c3cccc4ccccc34)ccc2N1 (stereo not drawn) [Example 67, 10-(1-naphthyl)-1,2,3,4,4a,5-hexahydropyrazino[1,2-a][1,5]benzodiazepin-6(7H)-one]	> 10	0.2	110					
O=C1CC2CNCCN2c2cc(-c3cccc4[nH]ccc34)ccc2N1 (stereo not drawn) [Example 68, 10-(1H-indol-4-yl)-1,2,3,4,4a,5-hexahydropyrazino[1,2-a][1,5]benzodiazepin-6(7H)-one]	> 10	0.09	> 120					
O=C1CC2CNCCN2c2cc(-c3ccccn3)ccc2N1 (stereo not drawn) [Example 71, 10-(pyridin-2-yl)-1,2,3,4,4a,5-hexahydropyrazino[1,2-a][1,5]benzodiazepin-6(7H)-one]					> 120	7.70	100	8.70
O=C1CC2CNCCN2c2cc(/C=C/c3ccccc3F)ccc2N1 (stereo not drawn) [Example 141, 10-[(E)-2-(2-fluorophenyl)vinyl]-1,2,3,4,4a,5-hexahydropyrazino[1,2-a][1,5]benzodiazepin-6(7H)-one]		0.004	88					

Continued, in another order:

EC50 [1] [µM]	EC50 [2] [µM]	Emax [2, 5] [%]	Emax [1, 6] [%]	SMILES	Emax [2, 3] [%]	pEC50 [1]	Emax [1, 4] [%]	pEC50 [2]
> 10	0.05	> 80		O=C1CC2CNCCN2c2cc(C3CC3)ccc2N1 (stereo not drawn) [Example 52, 10-cyclopropyl-1,2,3,4,4a,5-hexahydropyrazino[1,2-a][1,5]benzodiazepin-6(7H)-one]				
> 10	1	110		O=C1CC2CNCCN2c2cc(-c3cnn(Cc4ccccc4)c3)ccc2N1 (stereo not drawn) [Example 56, 10-(1-benzyl-1H-pyrazol-4-yl)-1,2,3,4,4a,5-hexahydropyrazino[1,2-a][1,5]benzodiazepin-6(7H)-one]				
> 10	0.9	100		O=C1CC2CNCCN2c2cc(-c3ccc4ccccc4c3)ccc2N1 (stereo not drawn) [Example 57, 10-(2-naphthyl)-1,2,3,4,4a,5-hexahydropyrazino[1,2-a][1,5]benzodiazepin-6(7H)-one]				
> 10	0.2	110		COc1ccc(-c2ccc3c(c2)N2CCNCC2CC(=O)N3)cc1 (stereo not drawn) [Example 58, 10-(4-methoxyphenyl)-1,2,3,4,4a,5-hexahydropyrazino[1,2-a][1,5]benzodiazepin-6(7H)-one]				
3	0.4	> 120	50	Cn1cc(-c2ccc3c(c2)N2CCNCC2CC(=O)N3)cn1 (stereo not drawn) [Example 60, 10-(1-methyl-1H-pyrazol-4-yl)-1,2,3,4,4a,5-hexahydropyrazino[1,2-a][1,5]benzodiazepin-6(7H)-one]				
> 10	0.1	> 120		O=C1CC2CNCCN2c2cc(-c3cccc(F)c3)ccc2N1 (stereo not drawn) [Example 61, 10-(3-fluorophenyl)-1,2,3,4,4a,5-hexahydropyrazino[1,2-a][1,5]benzodiazepin-6(7H)-one]				
0.9	0.06	> 120	60	O=C1CC2CNCCN2c2cc(-c3cnc4ccccc4c3)ccc2N1 (stereo not drawn) [Example 62, 10-(quinolin-3-yl)-1,2,3,4,4a,5-hexahydropyrazino[1,2-a][1,5]benzodiazepin-6(7H)-one]				
> 10	0.09	110		COc1ccccc1-c1ccc2c(c1)N1CCNCC1CC(=O)N2 (stereo not drawn) [Example 63, 10-(2-methoxyphenyl)-1,2,3,4,4a,5-hexahydropyrazino[1,2-a][1,5]benzodiazepin-6(7H)-one]				
> 10	0.05	> 120		COc1cccc(-c2ccc3c(c2)N2CCNCC2CC(=O)N3)c1 (stereo not drawn) [Example 65, 10-(3-methoxyphenyl)-1,2,3,4,4a,5-hexahydropyrazino[1,2-a][1,5]benzodiazepin-6(7H)-one]				
0.09	0.02	110	80	O=C1CC2CNCCN2c2cc(-c3ccoc3)ccc2N1 (stereo not drawn) [Example 69, 10-(3-furyl)-1,2,3,4,4a,5-hexahydropyrazino[1,2-a][1,5]benzodiazepin-6(7H)-one]				
> 10	0.06	> 120		O=C1CC2CNCCN2c2cc(-c3ccccc3F)ccc2N1 (stereo not drawn) [Example 70, 10-(2-fluorophenyl)-1,2,3,4,4a,5-hexahydropyrazino[1,2-a][1,5]benzodiazepin-6(7H)-one]				
